Test results: patent US20240373852A1, “COMPOSITION FOR ALLEVIATING DROUGHT STRESS COMPRISING AMINO ACID” (CJ CheilJedang Corporation, priority 2022, published 2024)

Test system: Arabidopsis thaliana
Experiment: Drought stress alleviation plate assay, single amino acid spray on Arabidopsis thaliana seedlings on PEG-treated medium
Type: in vivo
Settings: for growth and development of above- and below-ground tissues (fresh weight of above-ground tissues, root length): drought stress-induced medium (PEG 20% treated), amino acid aqueous solution 0.05% (w/w) or 0.1% (w/w) sprayed 1 ml/plate, 3 days intervals, 4 times, compared to water or A company's product (AP); for function in alleviating drought stress and promoting plant growth: laboratory condition (plate assay), conclusion from Example 1-2 and 1-3
Excerpt: In order to select an individual amino acid having function in alleviating drought stress among 20 kinds of amino acids (histidine, sodium glutamate, proline, threonine, tryptophan, valine, alanine, arginine, asparagine, aspartic acid, cysteine, glutamine, glycine, leucine, lysine, methionine, phenylalanine, serine, or tyrosine), Arabidopsis thaliana was trans-planted in drought stress-induced medium, and an amino acid aqueous solution comprising each amino acid (0.05% (w/w) or 0.1% (w/w)) was treated, then the fresh weight of the above-ground tissue and growth and development of the root (main root) of Arabidopsis thaliana were investigated.
Arabidopsis thaliana seeds (provided by Konkuk University plant development genomics lab) were put in a 2% Sodium hypochlorite, 0.05% Tween 20 solution and sterilized for 1 minute, then washed with water 4 times. The sterilized seeds were incubated in dark and cold (4 degrees) for 3 days.
Arabidopsis thaliana seeds were sown in a plant growth medium (½ MS; Murashige and Skoog Medium, Duchefa Biochem), and grow for 6 days in the growth chamber. The growth condition of plants is as follows: • Temperature: 23° C.; humidity: 60˜65%; light: light 16 hours/dark 8 hours
The drought stress-induced medium was prepared by the method as below.
After 24 hours, the PEG solution was removed and dried at a room temperature under a sterile condition.
6 days-old Arabidopsis thaliana seedlings grown in normal plant growth medium were transferred to the drought stress-induced medium (PEG 20% treated) or a control medium (PEG untreated).
Immediately after transfer seedlings on the drought-stress induced medium, an individual amino acid aqueous solution (0.05% (w/w) or 0.1% (w/w)) was sprayed on the plants; 1 ml/plate, 3 days intervals, for 4 times. As a control group, instead of the amino acid aqueous solution, water (DW, distilled water) or A company's drought stress-alleviating product (AP product, comprising Pro 9%, MSG 2.5%, Asp 0.9%) (Ajinomoto Fertilizers, Amino proline) was sprayed by the same method.
After that, the fresh weight, and root growth and development of Arabidopsis thaliana were investigated.

| Compound | growth and development of above- and below-ground tissues (fresh weight of above-ground tissues, root length) | function in alleviating drought stress and promoting plant growth |
| --- | --- | --- |
| C[C@H](N)C(=O)O [alanine] | excellent | positive function |
| N[C@@H](Cc1c[nH]c2ccccc12)C(=O)O [tryptophan] | excellent | positive function |
| N[C@@H](CC(=O)O)C(=O)O [aspartic acid] | excellent | positive function |
| N=C(N)NCCC[C@H](N)C(=O)O [arginine] | excellent | positive function |
| N[C@@H](Cc1ccccc1)C(=O)O [phenylalanine] | excellent | positive function |
| N[C@@H](Cc1c[nH]cn1)C(=O)O [histidine] | excellent | positive function |
| N[C@@H](CCC(=O)[O-])C(=O)[O-].[Na+].[Na+] [sodium glutamate] | excellent | positive function |
| NC(=O)CC[C@H](N)C(=O)O [glutamine] | excellent | positive function |
| CC(C)[C@H](N)C(=O)O [valine] | excellent |  |
| NCC(=O)O [glycine] | excellent | positive function |
